Assay results from patent publication US20250170090A1, “METHOD FOR PREVENTING OR TREATING DISEASE OR DISORDER ASSOCIATED WITH ANTINEOPLASTIC AGENT” (ONQUALITY PHARMACEUTICALS CHINA LTD., priority 2022, published 2025).

Legend:
[1] = system: human immortalized keratinocytes (HaCaT); assay: CCK-8 cell viability: alleviation of proliferative toxicity of anti-tumor agents on HaCaT (Table 8-1); assay type: cell-based; details: NO-NSAID 100 μM, percentage increase in viable cells vs anti-tumor agent alone
Procedure: (§1) Experiments were conducted using various epithelial cells: Examples 47-51 used human immortalized keratinocytes (HaCaT) with corresponding results in Table 8-1; Examples 52-56 used human oral keratinocytes (HOK) with results in Table 8-2; Examples 57-61 used gastric epithelial cells (GES-1) with results in Table 8-3; Examples 62-66 used human intestinal epithelial cells (FHs 74 Int) with results in Table 8-4.
(§2) The cultured cells were digested the suspended, counted, and seed into a 96-well plate with 5,000-10,000 cells per well. The wells are divided into the following groups: blank control group, anti-tumor agent group, anti-tumor agent+NO-NSAID group, anti-tumor agent solvent group, NO-NSAID solvent control group. Wherein each well of each group contained a basic medium, and the final liquid volume contained in each well was about 100 μL. The grouping situation was as follows: • 1) Blank control group: no solution was added except normally replacing the medium; • 2) Anti-tumor agent group: added the anti-tumor agent solution (the final concentration was shown in Table 8-1 to Table 8-4, the solvent of the anti-tumor agent solution was DMSO); • 3) Anti-tumor agent+NO-NSAID group: added the anti-tumor agent solution and the NO-NSAID solution (the final concentrations of anti-tumor agent and NO-NSAID were shown in Table 8-1 to Table 8-4, and according to the solubility of NO-NSAID, the solvent of NO-NSAID solution was selected as ethanol or sterile water, and minor volume differences in each group were adjusted by added the corresponding solvent); • 4) Anti-tumor agent solvent group: an equal volume of DMSO as contained in the corresponding anti-tumor agent solution in Group 2) was added; • 5) NO-NSAID control group: the same volume and type of solvent (for example, ethanol or sterile water) corresponding to the NO-NSAID contained in group 3) was added.
(§3) The anti-tumor agent solvent group was not involved in data processing and was only used as a reference for evaluating experimental system error. The NO-NSAID solvent control group was used for data correction to eliminate the influence of the solvent on the results.
(§4) After culturing for 24-48 hours, the Cell Counting Kit-8 (CCK-8) detection kit (C0037, Shanghai Beyotime Biotechnology Co., Ltd., Beyotime Biotechnology) was used to determine the cell viability. This allows for the calculation of the proliferative toxicity of anti-tumor agent on cell and the mitigating effect of NO-NSAID on proliferative toxicity. The results were statistically analyzed and plotted using GraphPad Prism 6.0 software and t test.

[2] = system: human oral keratinocytes (HOK); assay: CCK-8 cell viability: alleviation of proliferative toxicity of anti-tumor agents on HOK (Table 8-2); assay type: cell-based; details: NO-NSAID 100 μM
Procedure: as §1, §2, §3, §4

[3] = system: chemotherapy-induced hand-foot syndrome; assay: Prevention of chemotherapy-induced hand-foot syndrome in rat models (Table 5); assay type: in vivo, SD rats
Procedure: Rat animal model was constructed. After several days, the rats develop hand-foot syndrome in their paws. After one week of acclimatization (about 200 g), the SD rats are divided into groups of 10 rats each, followed by gavage administration experiment. The chemotherapy drugs were dissolved, and each rat was given a gavage dose of 1 mL/100 g. After gavage, the rats were fixed with a fixed cylinder. NO-NSAID ointment was applied to the paws of the rats in the medication group, and blank ointment was applied to the paws of the rats in the blank group (as blank control). […] Table 5 lists the animal experimental combinations of chemotherapy drugs and NO-NSAID ointment, as well as the corresponding experimental results (where the value in the control rate column=the incidence rate of hand-foot syndrome in the blank group−the incidence rate of hand-foot syndrome in the treatment group).

[4] = system: human intestinal epithelial cells (FHs 74 Int); assay: CCK-8 cell viability: alleviation of proliferative toxicity of anti-tumor agents on FHs 74 Int (Table 8-4); assay type: cell-based; details: NO-NSAID 100 μM
Procedure: as §1, §2, §3, §4

[5] = system: gastric epithelial cells (GES-1); assay: CCK-8 cell viability: alleviation of proliferative toxicity of anti-tumor agents on GES-1 (Table 8-3); assay type: cell-based, human; details: NO-NSAID 100 μM
Procedure: as §1, §2, §3, §4

[6] = system: hand-foot syndrome caused by anti-tumor agents; assay: Treatment of established hand-foot syndrome caused by anti-tumor agents in rats (Table 4); assay type: in vivo; details: Encorafenib 80 mg/kg once every two days; ointment 1% wt; Days 7
Procedure: After the rats (about 200 g) were fed and adapted for one week, the rats were divided into groups of 10 rats for gavage administration experiment. The anti-tumor agent was dissolved in a mixed solution of Cremophor EL:ethanol=1:1, and diluted with PBS to the required concentration (diluted about 3 times with PBS solution) before gavage. […] Specific experimental procedures followed those outlined in the prevention experiment. […] Table 4 lists the animal experiments using various anti-tumor agents and NO-NSAID ointment, as well as the corresponding experimental results (where the value in the control rate column=the incidence rate of hand-foot syndrome in the blank group−the incidence rate of hand-foot syndrome in the treatment group).

[7] = Capecitabine 4000 mg/kg once a day, ointment 2% wt, Days 40

Structure (SMILES): CC(C)Cc1ccc(C(C)C(=O)OCO/N=[N+](\[O-])N(C)C)cc1 (centres unmarked) [Compound A4]
- Response rate % (average) ([1]; Afatinib (10 μM)): 31%
- Response rate % (average) ([1]; Cabozantinib (5 μM)): 37%
- Response rate % (average) ([1]; Dabrafenib (10 μM)): 1%
- Response rate % (average) ([1]; Everolimus (5 μM)): −4%
- Response rate % (average) ([1]; Infigratinib (15 μM)): 12%
- Response rate % (average) ([1]; Lapatinib (5 μM)): 25%
- Response rate % (average) ([1]; Lenvatinib (10 μM)): 17%
- Response rate % (average) ([1]; Olmutinib (10 μM)): 26%
- Response rate % (average) ([1]; Regorafenib (5 μM)): 36%
- Response rate % (average) ([1]; Selumetinib (5 μM)): 3%
- Response rate % (average) ([1]; Sorafenib (5 μM)): 32%
- Response rate % (average) ([1]; Sunitinib (5 μM)): 16%
- Response rate % (average) ([2]; Afatinib (10 μM)): 34%
- Response rate % (average) ([2]; Cabozantinib (5 μM)): 24%
- Response rate % (average) ([2]; Dabrafenib (10 μM)): 2%
- Response rate % (average) ([2]; Everolimus (5 μM)): −3%
- Response rate % (average) ([2]; Infigratinib (15 μM)): 18%
- Response rate % (average) ([2]; Lapatinib (5 μM)): 0%
- Response rate % (average) ([2]; Lenvatinib (10 μM)): 33%
- Response rate % (average) ([2]; Olmutinib (10 μM)): 24%
- Response rate % (average) ([2]; Regorafenib (5 μM)): 15%
- Response rate % (average) ([2]; Selumetinib (5 μM)): −2%
- Response rate % (average) ([2]; Sorafenib (5 μM)): 29%
- Response rate % (average) ([2]; Sunitinib (5 μM)): 11%
- Control rate ([3]; Capecitabine 4000 mg/kg once a day, ointment 0.50% wt, Days 40): 25.00%
- Control rate [3, 7]: 57.14%
- Control rate ([3]; Cytarabine 120 mg/kg twice a day, ointment 0.50% wt, Days 30): 28.57%
- Response rate % (average) ([4]; Afatinib (10 μM)): 33%
- Response rate % (average) ([4]; Cabozantinib (5 μM)): 28%
- Response rate % (average) ([4]; Dabrafenib (10 μM)): −9%
- Response rate % (average) ([4]; Everolimus (5 μM)): 18%
- Response rate % (average) ([4]; Infigratinib (15 μM)): 17%
- Response rate % (average) ([4]; Lapatinib (5 μM)): 26%
- Response rate % (average) ([4]; Lenvatinib (10 μM)): 38%
- Response rate % (average) ([4]; Olmutinib (10 μM)): 16%
- Response rate % (average) ([4]; Regorafenib (5 μM)): 31%
- Response rate % (average) ([4]; Selumetinib (5 μM)): 14%
- Response rate % (average) ([4]; Sorafenib (5 μM)): 24%
- Response rate % (average) ([4]; Sunitinib (5 μM)): 23%
- Response rate % (average) ([5]; Afatinib (10 μM)): 16%
- Response rate % (average) ([5]; Cabozantinib (5 μM)): 29%
- Response rate % (average) ([5]; Dabrafenib (10 μM)): 6%
- Response rate % (average) ([5]; Everolimus (5 μM)): 23%
- Response rate % (average) ([5]; Infigratinib (15 μM)): 36%
- Response rate % (average) ([5]; Lapatinib (5 μM)): 22%
- Response rate % (average) ([5]; Lenvatinib (10 μM)): 36%
- Response rate % (average) ([5]; Olmutinib (10 μM)): 21%
- Response rate % (average) ([5]; Regorafenib (5 μM)): 29%
- Response rate % (average) ([5]; Selumetinib (5 μM)): 2%
- Response rate % (average) ([5]; Sorafenib (5 μM)): 22%
- Response rate % (average) ([5]; Sunitinib (5 μM)): 0%

Structure (SMILES): CC(=O)Oc1ccccc1C(=O)OCc1no[n+]([O-])c1C(N)=O [Compound A6]
- Control rate [3, 7]: 42.86%
- Response rate [6]: 16.67%
